# Measured values as given in paper PMC5218480 (PLoS ONE, 2017).
# Tested on: MV-4-11 cells
# Assay: Gene expression microarray analysis (Affymetrix PrimeView) and GSEA
# Format: cell-based, human
# Parameters: RFU PODN (11730768_x_at) / Fold change /veh PODN (11730768_x_at) / RFU LINC00158 (11744669_a_at) / Fold change /veh LINC00158 (11744669_a_at) / RFU DUSP10 (11751237_a_at) / Fold change /veh DUSP10 (11751237_a_at) / RFU ID3 (11757404_x_at) / Fold change /veh ID3 (11757404_x_at) / RFU PLEKHG5 (11737974_s_at) / Fold change /veh PLEKHG5 (11737974_s_at) / RFU LRRC4B (11730491_at) / Fold change /veh LRRC4B (11730491_at) / RFU GIMAP4 (11747438_a_at) / Fold change /veh GIMAP4 (11747438_a_at) / RFU KRT8 (11758183_x_at) / Fold change /veh KRT8 (11758183_x_at) / RFU CNN1 (11734310_a_at) / Fold change /veh CNN1 (11734310_a_at) / RFU VPS37D (11726825_at) / Fold change /veh VPS37D (11726825_at) / RFU C10orf10 (11716522_x_at) / Fold change /veh C10orf10 (11716522_x_at) / RFU KIR2DL2 /// KIR2DL4 /// KIR2DL5A /// KIR2DL5B /// KIR2DS1 /// KIR2DS2 /// KIR2DS3 /// KIR2DS4 /// KIR3DL3 /// KIR3DL3 /// KIR3DS1 (11738374_at) / Fold change /veh KIR2DL2 /// KIR2DL4 /// KIR2DL5A /// KIR2DL5B /// KIR2DS1 /// KIR2DS2 /// KIR2DS3 /// KIR2DS4 /// KIR3DL3 /// KIR3DL3 /// KIR3DS1 (11738374_at) / RFU C1QL1 (11718748_at) / Fold change /veh C1QL1 (11718748_at) / RFU TMPRSS4 (11747572_a_at) / Fold change /veh TMPRSS4 (11747572_a_at) / RFU HAMP (11756126_x_at) / Fold change /veh HAMP (11756126_x_at) / RFU RNFT2 (11725882_a_at) / Fold change /veh RNFT2 (11725882_a_at) / RFU NR4A2 (11747474_a_at) / Fold change /veh NR4A2 (11747474_a_at) / RFU ABCC12 (11746883_a_at) / Fold change /veh ABCC12 (11746883_a_at) / RFU TMEM136 (11760407_x_at) / Fold change /veh TMEM136 (11760407_x_at) / RFU CLDN22 /// WWC2 (11732394_at) / Fold change /veh CLDN22 /// WWC2 (11732394_at) / RFU HLA-DPB1 (11760878_x_at) / Fold change /veh HLA-DPB1 (11760878_x_at) / RFU SPINT1 (11716480_a_at) / Fold change /veh SPINT1 (11716480_a_at) / RFU GAP43 (11754022_s_at) / Fold change /veh GAP43 (11754022_s_at) / RFU A4GNT (11735810_at) / Fold change /veh A4GNT (11735810_at) / RFU PRB3 (11715151_x_at) / Fold change /veh PRB3 (11715151_x_at) / RFU TUBB4B (11761932_at) / Fold change /veh TUBB4B (11761932_at) / RFU CAPN14 (11732068_a_at) / Fold change /veh CAPN14 (11732068_a_at) / RFU TMCC2 (11721928_a_at) / Fold change /veh TMCC2 (11721928_a_at) / RFU IRGQ (11745062_a_at) / Fold change /veh IRGQ (11745062_a_at) / RFU FAM174B (11720279_a_at) / Fold change /veh FAM174B (11720279_a_at) / RFU TMPRSS4 (11748680_a_at) / Fold change /veh TMPRSS4 (11748680_a_at) / RFU FAM212B (11763350_a_at) / Fold change /veh FAM212B (11763350_a_at) / RFU PLEKHG5 (11743358_a_at) / Fold change /veh PLEKHG5 (11743358_a_at) / RFU ZSCAN30 (11745921_a_at) / Fold change /veh ZSCAN30 (11745921_a_at) / RFU CMKLR1 (11741424_a_at) / Fold change /veh CMKLR1 (11741424_a_at) / RFU LOC101060620 /// MAPK8IP1 (11723275_at) / Fold change /veh LOC101060620 /// MAPK8IP1 (11723275_at) / RFU SPTSSB (11747773_x_at) / Fold change /veh SPTSSB (11747773_x_at) / RFU PRSS12 (11739890_at) / Fold change /veh PRSS12 (11739890_at) / RFU BIN1 (11741810_x_at) / Fold change /veh BIN1 (11741810_x_at) / RFU WNT11 (11732464_a_at) / Fold change /veh WNT11 (11732464_a_at) / RFU C10orf10 (11716521_a_at) / Fold change /veh C10orf10 (11716521_a_at) / RFU C5orf56 (11738089_at) / Fold change /veh C5orf56 (11738089_at) / RFU CYB561 (11721691_x_at) / Fold change /veh CYB561 (11721691_x_at) / RFU ANKRD19P (11752326_a_at) / Fold change /veh ANKRD19P (11752326_a_at) / RFU OR2T12 /// OR2T33 /// OR2T8 (11738714_s_at) / Fold change /veh OR2T12 /// OR2T33 /// OR2T8 (11738714_s_at) / RFU VCAN (11748164_a_at) / Fold change /veh VCAN (11748164_a_at) / RFU JSRP1 (11732532_at) / Fold change /veh JSRP1 (11732532_at) / RFU KRTAP10-11 (11738290_x_at) / Fold change /veh KRTAP10-11 (11738290_x_at) / RFU MYO3A (11730013_a_at) / Fold change /veh MYO3A (11730013_a_at) / RFU EBF3 (11725865_a_at) / Fold change /veh EBF3 (11725865_a_at) / RFU CAMK2N1 (11719241_x_at) / Fold change /veh CAMK2N1 (11719241_x_at) / RFU C5orf56 (11738088_a_at) / Fold change /veh C5orf56 (11738088_a_at) / RFU OLFML3 (11715873_a_at) / Fold change /veh OLFML3 (11715873_a_at) / RFU LOC100653217 /// NTM (11731650_a_at) / Fold change /veh LOC100653217 /// NTM (11731650_a_at) / RFU MAPK11 (11762145_a_at) / Fold change /veh MAPK11 (11762145_a_at) / RFU FIZ1 (11724087_x_at) / Fold change /veh FIZ1 (11724087_x_at) / RFU OASL (11726364_x_at) / Fold change /veh OASL (11726364_x_at) / RFU SOX15 (11748057_x_at) / Fold change /veh SOX15 (11748057_x_at) / RFU CD79A (11719716_a_at) / Fold change /veh CD79A (11719716_a_at) / RFU HIST1H1D (11736915_at) / Fold change /veh HIST1H1D (11736915_at) / RFU CASKIN2 (11723855_a_at) / Fold change /veh CASKIN2 (11723855_a_at) / RFU LOC730098 (11760151_x_at) / Fold change /veh LOC730098 (11760151_x_at) / RFU OR4N2 (11742367_at) / Fold change /veh OR4N2 (11742367_at) / RFU PRRT2 (11749266_a_at) / Fold change /veh PRRT2 (11749266_a_at) / RFU SNX32 (11753110_a_at) / Fold change /veh SNX32 (11753110_a_at) / RFU CDHR5 (11726645_a_at) / Fold change /veh CDHR5 (11726645_a_at) / RFU RCAN1 (11760418_a_at) / Fold change /veh RCAN1 (11760418_a_at) / RFU FAM167A (11723789_a_at) / Fold change /veh FAM167A (11723789_a_at) / RFU FAM26E (11764081_at) / Fold change /veh FAM26E (11764081_at) / RFU ISYNA1 (11749810_s_at) / Fold change /veh ISYNA1 (11749810_s_at) / RFU ACY1 (11761880_at) / Fold change /veh ACY1 (11761880_at) / RFU 11764098_at / Fold change /veh 11764098_at / RFU SAMD14 (11745864_x_at) / Fold change /veh SAMD14 (11745864_x_at) / RFU NPB (11741838_a_at) / Fold change /veh NPB (11741838_a_at) / RFU TMPRSS6 (11731388_a_at) / Fold change /veh TMPRSS6 (11731388_a_at) / RFU KRTAP10-2 (11738614_at) / Fold change /veh KRTAP10-2 (11738614_at) / RFU ARHGAP8 /// PRR5-ARHGAP8 (11727945_x_at) / Fold change /veh ARHGAP8 /// PRR5-ARHGAP8 (11727945_x_at) / RFU KRTAP5-7 /// NADSYN1 (11734609_at) / Fold change /veh KRTAP5-7 /// NADSYN1 (11734609_at) / RFU RASL12 (11751679_a_at) / Fold change /veh RASL12 (11751679_a_at) / RFU CDKN2B (11736163_a_at) / Fold change /veh CDKN2B (11736163_a_at) / RFU PRF1 (11729649_at) / Fold change /veh PRF1 (11729649_at) / RFU, ZNF638 /// ZNF638-IT1 / Fold change vs veh, ZNF638 /// ZNF638-IT1 / RFU, PANK3 / Fold change vs veh, PANK3 / RFU, SH3YL1 / Fold change vs veh, SH3YL1 / RFU, ZEB2 / Fold change vs veh, ZEB2 / RFU, NRIP1 / Fold change vs veh, NRIP1 / RFU, PTTG1IP / Fold change vs veh, PTTG1IP / RFU, CAPN2 / Fold change vs veh, CAPN2 / RFU, MED14 / Fold change vs veh, MED14 / RFU, SNORA58 / Fold change vs veh, SNORA58 / RFU, C1orf63 / Fold change vs veh, C1orf63 / RFU, LRRFIP1 / Fold change vs veh, LRRFIP1 / RFU, NDUFAF7 / Fold change vs veh, NDUFAF7 / RFU, SLC12A2 / Fold change vs veh, SLC12A2 / RFU, IBTK / Fold change vs veh, IBTK / RFU, ESF1 / Fold change vs veh, ESF1 / Fold change vs veh, TMEM50B / RFU, TAOK1 / Fold change vs veh, TAOK1 / RFU, ACBD3 / Fold change vs veh, ACBD3 / RFU, TMA16 / Fold change vs veh, TMA16 / RFU, RWDD3 / Fold change vs veh, RWDD3 / RFU, BCAT1 / Fold change vs veh, BCAT1 / RFU, EDEM3 / Fold change vs veh, EDEM3 / RFU, TMEM33 / Fold change vs veh, TMEM33 / RFU, WDR75 / Fold change vs veh, WDR75 / RFU, AHCTF1 / Fold change vs veh, AHCTF1 / RFU, TFRC / Fold change vs veh, TFRC / RFU, ZDHHC17 / Fold change vs veh, ZDHHC17 / RFU, NOM1 / Fold change vs veh, NOM1 / RFU, ARL8B / Fold change vs veh, ARL8B / RFU, ZBTB11 / Fold change vs veh, ZBTB11 / RFU, TAMM41 / Fold change vs veh, TAMM41 / RFU, KIAA1704 /// LOC100996395 / Fold change vs veh, KIAA1704 /// LOC100996395 / RFU, ING1 / Fold change vs veh, ING1 / RFU, TRMT61B / Fold change vs veh, TRMT61B / RFU, FUBP3 / Fold change vs veh, FUBP3 / RFU, TP53 / Fold change vs veh, TP53 / RFU, TNKS2 / Fold change vs veh, TNKS2 / RFU, ZFP14 / Fold change vs veh, ZFP14 / RFU, ACTR2 / Fold change vs veh, ACTR2 / RFU, PPP3R1 / Fold change vs veh, PPP3R1 / RFU, PIK3R1 / Fold change vs veh, PIK3R1 / RFU, HNRNPA1 / Fold change vs veh, HNRNPA1 / RFU, RNF170 / Fold change vs veh, RNF170 / RFU, ZNF28 / Fold change vs veh, ZNF28 / RFU, RNGTT / Fold change vs veh, RNGTT / RFU, OGT / Fold change vs veh, OGT / RFU, BRD1 / Fold change vs veh, BRD1 / RFU, MARS / Fold change vs veh, MARS / RFU, ZNF655 / Fold change vs veh, ZNF655 / RFU, FAHD1 / Fold change vs veh, FAHD1 / RFU, BDP1 / Fold change vs veh, BDP1 / RFU, LRRCC1 / Fold change vs veh, LRRCC1 / RFU, ARID1A / Fold change vs veh, ARID1A / RFU, ZNF146 / Fold change vs veh, ZNF146 / RFU, ZNF330 / Fold change vs veh, ZNF330 / RFU, GPN3 / Fold change vs veh, GPN3 / RFU, C9orf123 / Fold change vs veh, C9orf123 / RFU, N4BP2L2 / Fold change vs veh, N4BP2L2 / RFU, ARFIP1 / Fold change vs veh, ARFIP1 / RFU, FAM179B / Fold change vs veh, FAM179B / RFU, BCL10 / Fold change vs veh, BCL10 / RFU, UHRF1BP1L / Fold change vs veh, UHRF1BP1L / RFU, BET1 / Fold change vs veh, BET1 / RFU, CNOT2 / Fold change vs veh, CNOT2 / RFU, ZNF268 / Fold change vs veh, ZNF268 / Fold change vs veh, ZNF507 / RFU, DGCR2 / Fold change vs veh, DGCR2 / RFU, WDSUB1 / Fold change vs veh, WDSUB1 / Fold change vs veh, HSP90B1 /// MIR3652 / RFU, ADSS / Fold change vs veh, ADSS / RFU, GK / Fold change vs veh, GK / RFU, ZNF148 / Fold change vs veh, ZNF148 / RFU, TAF9 / Fold change vs veh, TAF9 / RFU, SLC1A5 / Fold change vs veh, SLC1A5 / RFU, SLMO2 / Fold change vs veh, SLMO2 / RFU, ABCC4 / Fold change vs veh, ABCC4 / RFU, LOC101060439 /// RAP1B / Fold change vs veh, LOC101060439 /// RAP1B / RFU, RFX7 / Fold change vs veh, RFX7 / RFU, GTPBP10 / Fold change vs veh, GTPBP10 / RFU, CNEP1R1 / Fold change vs veh, CNEP1R1 / RFU, BIVM-ERCC5 /// ERCC5 / Fold change vs veh, BIVM-ERCC5 /// ERCC5 / RFU, ILF3 / Fold change vs veh, ILF3 / RFU 11762660_at / Fold change /veh 11762660_at / RFU VCAN (11757783_s_at) / Fold change /veh VCAN (11757783_s_at) / RFU DDX43 (11728927_at) / Fold change /veh DDX43 (11728927_at) / RFU KRT8 (11758188_x_at) / Fold change /veh KRT8 (11758188_x_at) / RFU NKD1 (11759106_at) / Fold change /veh NKD1 (11759106_at) / RFU SRD5A1 (11742802_a_at) / Fold change /veh SRD5A1 (11742802_a_at) / RFU TPSAB1 /// TPSB2 (11721975_s_at) / Fold change /veh TPSAB1 /// TPSB2 (11721975_s_at) / RFU GSTM3 (11746129_a_at) / Fold change /veh GSTM3 (11746129_a_at) / RFU IL23R (11737362_x_at) / Fold change /veh IL23R (11737362_x_at) / RFU TMEM51 (11727254_a_at) / Fold change /veh TMEM51 (11727254_a_at) / RFU PIWIL2 (11732686_x_at) / Fold change /veh PIWIL2 (11732686_x_at) / RFU ORM1 (11744905_x_at) / Fold change /veh ORM1 (11744905_x_at) / RFU CCDC152 (11743942_at) / Fold change /veh CCDC152 (11743942_at) / RFU ECM1 (11717891_a_at) / Fold change /veh ECM1 (11717891_a_at) / RFU IL23R (11748794_a_at) / Fold change /veh IL23R (11748794_a_at) / RFU TNFAIP8L3 (11732012_x_at) / Fold change /veh TNFAIP8L3 (11732012_x_at) / RFU MBOAT4 (11741988_at) / Fold change /veh MBOAT4 (11741988_at) / RFU 11764193_at / Fold change /veh 11764193_at / RFU TMEM53 (11763286_at) / Fold change /veh TMEM53 (11763286_at) / RFU MAGEB2 (11727129_at) / Fold change /veh MAGEB2 (11727129_at) / RFU TMEM200A (11744735_a_at) / Fold change /veh TMEM200A (11744735_a_at) / RFU CCDC152 (11751479_a_at) / Fold change /veh CCDC152 (11751479_a_at) / RFU FAM211A (11726209_a_at) / Fold change /veh FAM211A (11726209_a_at) / RFU RGS16 (11746705_a_at) / Fold change /veh RGS16 (11746705_a_at) / RFU VCAN (11755009_s_at) / Fold change /veh VCAN (11755009_s_at) / RFU RHOB (11743442_s_at) / Fold change /veh RHOB (11743442_s_at) / RFU RGS16 (11720943_a_at) / Fold change /veh RGS16 (11720943_a_at) / RFU RGS16 (11720944_at) / Fold change /veh RGS16 (11720944_at) / RFU, VPS4B / Fold change vs veh, VPS4B / RFU, CREB1 / Fold change vs veh, CREB1 / RFU, DNAJC13 / Fold change vs veh, DNAJC13 / RFU, GNAQ / Fold change vs veh, GNAQ / RFU, CDK5R1 / Fold change vs veh, CDK5R1 / RFU, ZRANB3 / Fold change vs veh, ZRANB3 / RFU, CUL4A / Fold change vs veh, CUL4A / RFU, CCNY / Fold change vs veh, CCNY / RFU, UFL1 / Fold change vs veh, UFL1 / RFU, COG3 / Fold change vs veh, COG3 / RFU, DIAPH2 / Fold change vs veh, DIAPH2 / RFU, SKA2 / Fold change vs veh, SKA2 / RFU, AFF3 / Fold change vs veh, AFF3 / RFU, LMF1 / Fold change vs veh, LMF1 / RFU, IPO11 / Fold change vs veh, IPO11 / RFU, DFFB / Fold change vs veh, DFFB / RFU, FOXP1 / Fold change vs veh, FOXP1 / RFU, CARD8 / Fold change vs veh, CARD8 / RFU, STRN3 / Fold change vs veh, STRN3 / RFU, ADK / Fold change vs veh, ADK / RFU, RASSF2 / Fold change vs veh, RASSF2 / RFU, WIPF1 / Fold change vs veh, WIPF1 / RFU, LARP1B / Fold change vs veh, LARP1B / RFU, RASA1 / Fold change vs veh, RASA1 / RFU, RB1 / Fold change vs veh, RB1 / RFU, PPFIA1 / Fold change vs veh, PPFIA1 / RFU, MAT2A / Fold change vs veh, MAT2A / RFU, CCT5 / Fold change vs veh, CCT5 / RFU, WDR92 / Fold change vs veh, WDR92 / RFU, CUX1 / Fold change vs veh, CUX1 / RFU, TTC7A / Fold change vs veh, TTC7A / RFU, TMEM135 / Fold change vs veh, TMEM135 / RFU, DEPTOR / Fold change vs veh, DEPTOR / RFU, CPM / Fold change vs veh, CPM / RFU, DNAJB6 / Fold change vs veh, DNAJB6 / RFU, CACNA2D3 / Fold change vs veh, CACNA2D3 / RFU, DTX4 / Fold change vs veh, DTX4 / RFU, TFCP2 / Fold change vs veh, TFCP2 / RFU, GMCL1 /// GMCL1P1 / Fold change vs veh, GMCL1 /// GMCL1P1 / RFU, AEBP2 / Fold change vs veh, AEBP2 / RFU, SNHG1 /// SNORD22 /// SNORD25 /// SNORD26 /// SNORD27 /// SNORD28 /// SNORD29 /// SNORD31 / Fold change vs veh, SNHG1 /// SNORD22 /// SNORD25 /// SNORD26 /// SNORD27 /// SNORD28 /// SNORD29 /// SNORD31 / Fold change (Aza/veh), C12orf56 (ProbeSet 11735607_a_at) / Fold change (ACY-1035/veh), C12orf56 (ProbeSet 11735607_a_at) / Fold change (Aza/veh), FGFR1OP (ProbeSet 11751329_s_at) / Fold change (ACY-1035/veh), FGFR1OP (ProbeSet 11751329_s_at) / Fold change (Aza/veh), VPS36 (ProbeSet 11739960_a_at) / Fold change (ACY-1035/veh), VPS36 (ProbeSet 11739960_a_at) / RFU SYPL1 (11715823_x_at) / Fold change /veh SYPL1 (11715823_x_at) / RFU IGFBP7 (11715501_s_at) / Fold change /veh IGFBP7 (11715501_s_at) / RFU REEP3 (11722064_at) / Fold change /veh REEP3 (11722064_at) / RFU IGLL1 (11728026_x_at) / Fold change /veh IGLL1 (11728026_x_at): dose or concentration left out as unconfirmed
# Conditions: MV-4-11 cells, 48 hours
smiles,measurement,value
Nc1ncn([C@@H]2O[C@H](CO)[C@@H](O)[C@H]2O)c(=O)n1 [azacitidine],Fold change /veh RGS16 (11720944_at),1.54
